Experimental data: paper PMC10447463, “Data-mining unveils structure–property–activity correlation of viral infectivity enhancing self-assembling peptides” (Nature Communications, 2023)

Tests used:
[1] = system: HIV-1 infection of TZM-bl cells; assay: HIV-1 infectivity enhancement assay, β-galactosidase luminescence; type: cell-based; conditions: for Rel-EFC: infection relative to EF-C (QCKIKQIINMWQ = 1); for Log10 Infection Rel EFC: log10 of infection relative to EF-C; for Log10 Infection Rel EF-C: HIV-1 infection of TZM-bl cells; for Infection (FigS19 A): mean of 3 replicates
[2] = Turbidity, derived count rate of scattered light; type: physicochemical; conditions: for Count Rate: derived count rate of scattered light (turbidity); for Log10 Count Rate: turbidity, derived count rate of scattered light, data of Figure 2D
[3] = Turbidity, derived count rate of scattered light; type: physicochemical; conditions: for Count Rate / kcps: derived count rate of scattered light at 633 nm, 173°, from zeta-potential measurement, 0.1 mg/mL in 1 mM KCl after 1 d at 1 mg/mL in PBS, turbidity / microscopic aggregation, mean of triplicate; for Log Count Rate: log of derived count rate
Summary of the method: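 One-day room-temperature aggregation at 1 mg/mL in PBS (pH 7.4) preceded measurement; samples then went into 1 mM KCl. Triplicates per sample, two independent experiments averaged.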

[4] = Zeta-potential measurement; type: physicochemical; conditions: for Zeta-Pot.: zeta potential of peptide assemblies
Summary of the method: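 Charge on peptide aggregates was assessed by electrophoretic mobility in 1 mM KCl, converted per Smoluchowski. Prior aggregation: 1 mg/mL, pH 7.4 PBS, 1 d, RT.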

[5] = Log10 of infection rate relative to EF-C, Figure 3A source data
[6] = infection rate relative to EF-C, log10, data of Figure 2D
[7] = infection rate relative to EF-C, log10, source data of Figure 2C
[8] = Log10 of derived count rate of scattered light (turbidity)
[9] = log10 of derived count rate of scattered light (turbidity)
[10] = turbidity, Log10 of derived count rate of scattered light, Figure 3A source data
[11] = zeta-potential of peptide, source data of Figure 2C
[12] = zeta-potential of the peptide assemblies, mean, Figure 3A source data

Row | Sequence | Rel-EFC ([1]; 1.3 µM peptide) | Log10 Infection Rel EFC ([1]; 1.3 µM peptide) | Log10 Infection Rel EF-C [1, 5] | Log10 Infection Rel EF-C [1, 6] | Log10 Infection Rel EF-C [1, 7] | Count Rate [2] | Log10 Count Rate [2] | Log10 Count Rate [3, 8] | Count Rate / kcps [3] | Log10 Count Rate [3, 9] | Log10 Count Rate [3, 10] | Zeta-Pot. [4] | Zeta-Potential / mV [4, 11] | Zeta-Potential / mV [4, 12] | also measured
1 | CKIKQIIRGD | 0,05 | -1,31 | -1.31 | -1.311 | -1.311 | 3495 | 3.544 | 3.544 | 3495 kcps | 3.544 | 3.544 | 13.2 | 13.2 mV | 13.2 mV | –
2 | HHHHKIKIKIKIWWWW [TM4] | – | – | – | – | – | – | – | – | – | – | – | – | – | – | Infection (FigS19 A) ([1]; 0.26 µM peptide): 15326.66667 RLU/s; Infection (FigS19 A) ([1]; 1.3 µM peptide): 20796.66667 RLU/s; Infection (FigS19 A) ([1]; 6.5 µM peptide): 12450 RLU/s; Absolute Infectivity / RLU /s (Feb2021) ([1]; Feb2021, figures match the 1.3 µM column): 20796.66667 RLU /s; n-fold to virus (Feb2021) ([1]; Feb2021, infectivity relative to virus only): 15.92; Log10 of Rel to EFC (Feb2021) ([1]; Feb2021, log10 of infectivity relative to EF-C): -0.4216; Rel-to EFC (Feb-2021) ([1]; Feb2021, n-fold infectivity relative to EF-C): 0.3788; Rel-to EFC ([1]; Fig S8 panels B, D, infectivity enhancement relative to EF-C): 0.3788; n-fold to virus ([1]; Fig S8 panels B, D, infectivity n-fold relative to virus alone): 15.92; infectivity ([1]; infectivity class (low / medium / high) of each library peptide, main list in c1-c6, same classes repeated in sub-lists of sequences containing the hydrophobicity/charge patterns P+,H0,P+,H0,P0,H0,P0, P+,H0,P0,H0,P0,H0,P0, P+,H0,P0,H0): medium; Log10 Inf. rel. to EF-C ([1]; log10 of HIV-1 infection of TZM-bl cells relative to EF-C, Fig S15 source data, asymmetric std dev errors): -0.4216; Log Count Rate ([3]; Fig S8 panels A, C, asymmetric log errors): 4.376; Log Count Rate ([3]; Fig S8 panels B, D): 4.376; Count Rate ([3]; Fig S8 panels B, D, turbidity, derived count rate of scattered light): 23756.7; Zeta Count Rate Category ([3]; category 1 / 0, no key given): 1; Zeta Count Rate / kcps ([3]; derived count rate of scattered light): 23756.66667 kcps; Zeta Pot. / mV [4]: 14.5 mV; Zeta category ( +1 = if > 4 mV;-1 = if < -4 mV; 0 = -4mV to 4 mV) [4]: 1 (+1 = if > 4 mV); Zeta-pot. / mV ([4]; zeta potential of peptide, Fig S15 source data): 14.5 mV
3 | RGDKIKIQINMC | 1,07 | 0,03 | 0.03 | 0.02911 | 0.02911 | 1404 | 3.147 | 3.147 | 1404 kcps | 3.147 | 3.147 | 12.2 | 13.9 mV | 12.2 mV | Log Infectivity ([1]; Fig. S7 panel B (plotted against CR), rounded to two decimals, Log10 infection relative to EF-C, TZM-bl cells, asymmetric std dev errors): 0.03; Log10 of Rel to EFC (Feb2021) ([1]; Log10 of infection relative to EF-C, all peptides of FigS16): 0.03
